According to paper PMC11277489, “Novel Piperazine Derivatives of Vindoline as Anticancer Agents” (International Journal of Molecular Sciences, 2024):

Key:
MOLT-4 = assay: NCI60 one-dose screen (10 μM), Leukemia; assay type: cell-based, human; conditions: Homo sapiens, MOLT-4, read-out: Growth percent rate
SF-295 = assay: NCI60 one-dose screen (10 μM), CNS Cancer; assay type: cell-based; conditions: Homo sapiens, SF-295, read-out: Growth percent rate
K-562 = assay: NCI60 one-dose screen (10 μM), Leukemia; assay type: cell-based; conditions: Homo sapiens, K562, read-out: Growth percent rate
MDA-MB-435 = assay: NCI60 one-dose screen (10 μM), Melanoma; assay type: cell-based; conditions: Homo sapiens, MDA-MB-435, read-out: Growth percent rate
MALME-3M = assay: NCI60 one-dose screen (10 μM), Melanoma; assay type: cell-based; conditions: Homo sapiens, Malme-3M, read-out: Growth percent rate
786–0 = assay: NCI60 one-dose screen (10 μM), Renal Cancer; assay type: cell-based; conditions: Homo sapiens, 786-0, read-out: Growth percent rate
NCI-H322M = assay: NCI60 one-dose screen (10 μM), Non-small Cell Lung Cancer; assay type: cell-based; conditions: Homo sapiens, read-out: Growth percent rate
RPMI-8226 = assay: NCI60 one-dose screen (10 μM), Leukemia; assay type: cell-based; conditions: Homo sapiens, RPMI-8226, read-out: Growth percent rate
EKVX = assay: NCI60 one-dose screen (10 μM), Non-small Cell Lung Cancer; assay type: cell-based; conditions: Homo sapiens, read-out: Growth percent rate
A498 = assay: NCI60 one-dose screen (10 μM), Renal Cancer; assay type: cell-based; conditions: Homo sapiens, A498, read-out: Growth percent rate
SNB-75 = assay: NCI60 one-dose screen (10 μM), CNS Cancer; assay type: cell-based, human; conditions: Homo sapiens, SNB-75, read-out: Growth percent rate
OVCAR-3 = assay: NCI60 one-dose screen (10 μM), Ovarian Cancer; assay type: cell-based; conditions: Homo sapiens, OVCAR-3, read-out: Growth percent rate
UACC-257 = assay: NCI60 one-dose screen (10 μM), Melanoma; assay type: cell-based; conditions: Homo sapiens, UACC-257, read-out: Growth percent rate
OVCAR-4 = assay: NCI60 one-dose screen (10 μM), Ovarian Cancer; assay type: cell-based; conditions: Homo sapiens, OVCAR-4, read-out: Growth percent rate
HCT-15 = assay: NCI60 one-dose screen (10 μM), Colon Cancer; assay type: cell-based; conditions: Homo sapiens, HCT-15, read-out: Growth percent rate
HS 578T = assay: NCI60 one-dose screen (10 μM), Breast Cancer; assay type: cell-based; conditions: Homo sapiens, Hs-578T, read-out: Growth percent rate
NCI-H23 = assay: NCI60 one-dose screen (10 μM), Non-small Cell Lung Cancer; assay type: cell-based; conditions: Homo sapiens, NCI-H23, read-out: Growth percent rate
COLO 205 = assay: NCI60 one-dose screen (10 μM), Colon Cancer; assay type: cell-based, human; conditions: Homo sapiens, COLO 205, read-out: Growth percent rate
MCF7 = assay: NCI60 one-dose screen (10 μM), Breast Cancer; assay type: cell-based; conditions: Homo sapiens, MCF7, read-out: Growth percent rate
CCRF-CEM = assay: NCI60 one-dose screen (10 μM), Leukemia; assay type: cell-based; conditions: Homo sapiens, read-out: Growth percent rate
SK-MEL-2 = assay: NCI60 one-dose screen (10 μM), Melanoma; assay type: cell-based; conditions: Homo sapiens, SK-MEL-2, read-out: Growth percent rate
SN12C = assay: NCI60 one-dose screen (10 μM), Renal Cancer; assay type: cell-based; conditions: Homo sapiens, read-out: Growth percent rate
HOP-62 = assay: NCI60 one-dose screen (10 μM), Non-small Cell Lung Cancer; assay type: cell-based; conditions: Homo sapiens, HOP-62, read-out: Growth percent rate
A549/ATCC = assay: as above; assay type: cell-based; conditions: Homo sapiens, A549, read-out: Growth percent rate
U251 = assay: NCI60 one-dose screen (10 μM), CNS Cancer; assay type: cell-based; conditions: Homo sapiens, U-251, read-out: Growth percent rate
[1] = tested on: 60 human tumor cell lines (NCI60); assay: NCI60 one-dose screen (10 μM), whole panel; assay type: cell-based; conditions: for activity at 10 µM: Homo sapiens, read-out: Growth percent rate, Mean
LOX IMVI = assay: NCI60 one-dose screen (10 μM), Melanoma; assay type: cell-based, human; conditions: Homo sapiens, LOX IMVI, read-out: Growth percent rate
SF-539 = assay: NCI60 one-dose screen (10 μM), CNS Cancer; assay type: cell-based, human; conditions: Homo sapiens, SF-539, read-out: Growth percent rate
OVCAR-8 = assay: NCI60 one-dose screen (10 μM), Ovarian Cancer; assay type: cell-based; conditions: Homo sapiens, OVCAR-8, read-out: Growth percent rate
IGROV1 = assay: NCI60 one-dose screen (10 μM), Ovarian Cancer; assay type: cell-based; conditions: Homo sapiens, IGROV-1, read-out: Growth percent rate
SF-268 = assay: NCI60 one-dose screen (10 μM), CNS Cancer; assay type: cell-based; conditions: Homo sapiens, SF-268, read-out: Growth percent rate
NCI-H522 = assay: NCI60 one-dose screen (10 μM), Non-small Cell Lung Cancer; assay type: cell-based; conditions: Homo sapiens, NCI-H522, read-out: Growth percent rate
RXF 393 = assay: NCI60 one-dose screen (10 μM), Renal Cancer; assay type: cell-based, human; conditions: Homo sapiens, RXF 393, read-out: Growth percent rate
SK-MEL-28 = assay: NCI60 one-dose screen (10 μM), Melanoma; assay type: cell-based; conditions: Homo sapiens, SK-MEL-28, read-out: Growth percent rate
HCT-116 = assay: NCI60 one-dose screen (10 μM), Colon Cancer; assay type: cell-based; conditions: Homo sapiens, HCT-116, read-out: Growth percent rate
CAKI-1 = assay: NCI60 one-dose screen (10 μM), Renal Cancer; assay type: cell-based; conditions: Homo sapiens, CAKI-1, read-out: Growth percent rate
TK-10 = assay: NCI60 one-dose screen (10 μM), Renal Cancer; assay type: cell-based; conditions: Homo sapiens, TK-10, read-out: Growth percent rate
HL-60(TB) = assay: NCI60 one-dose screen (10 μM), Leukemia; assay type: cell-based; conditions: Homo sapiens, HL-60, read-out: Growth percent rate
NCI-H460 = assay: NCI60 one-dose screen (10 μM), Non-small Cell Lung Cancer; assay type: cell-based; conditions: Homo sapiens, NCI-H460, read-out: Growth percent rate
ACHN = assay: NCI60 one-dose screen (10 μM), Renal Cancer; assay type: cell-based; conditions: Homo sapiens, read-out: Growth percent rate
SW-620 = assay: NCI60 one-dose screen (10 μM), Colon Cancer; assay type: cell-based; conditions: Homo sapiens, SW-620, read-out: Growth percent rate
KM12 = assay: NCI60 one-dose screen (10 μM), Colon Cancer; assay type: cell-based, human; conditions: Homo sapiens, KM12, read-out: Growth percent rate

**Q.** Which results are given for `CC[C@]12C=CCN3CC[C@@]4(c5ccc(OC)cc5N(C)[C@H]4[C@@](O)(C(=O)OC)[C@@H]1OC(=O)CCCN1CCN(C(c4ccc(F)cc4)c4ccc(F)cc4)CC1)[C@@H]32` [Compound 25]?
**A.** activity at 10 µM (MOLT-4): -31.9%; activity at 10 µM (SF-295): -91%; activity at 10 µM (K-562): -1.7%; activity at 10 µM (MDA-MB-435): -78.7%; activity at 10 µM (MALME-3M): -91%; activity at 10 µM (786–0): -96.4%; activity at 10 µM (NCI-H322M): -71.7%; activity at 10 µM (RPMI-8226): -50.1%; activity at 10 µM (EKVX): -89.8%; activity at 10 µM (A498): -97.2%; activity at 10 µM (SNB-75): -86.4%; activity at 10 µM (OVCAR-3): -83%; activity at 10 µM (UACC-257): -78.2%; activity at 10 µM (OVCAR-4): -41.5%; activity at 10 µM (HCT-15): -96.6%; activity at 10 µM (HS 578T): -60%; activity at 10 µM (NCI-H23): -92.7%; activity at 10 µM (COLO 205): -78.5%; activity at 10 µM (MCF7): -88.2%; activity at 10 µM (CCRF-CEM): -29.5%; activity at 10 µM (SK-MEL-2): -89.5%; activity at 10 µM (SN12C): -95%; activity at 10 µM (HOP-62): -77.2%; activity at 10 µM (A549/ATCC): -65.4%; activity at 10 µM (U251): -79%; growth rate ([1]; 10 μM one-dose, on almost all tested cancer types and cell lines, negative = lethality): < −60%; activity at 10 µM [1]: -79.9%; activity at 10 µM (LOX IMVI): -98.8%; activity at 10 µM (SF-539): -98.5%; activity at 10 µM (OVCAR-8): -69.3%; activity at 10 µM (IGROV1): -77%; activity at 10 µM (SF-268): -81.9%; activity at 10 µM (NCI-H522): -88.2%; activity at 10 µM (RXF 393): -94.5%; activity at 10 µM (SK-MEL-28): -96.5%; activity at 10 µM (HCT-116): -98.6%; activity at 10 µM (CAKI-1): -86.2%; activity at 10 µM (TK-10): -90.4%; activity at 10 µM (HL-60(TB)): -56.2%; activity at 10 µM (NCI-H460): -70.4%; activity at 10 µM (ACHN): -69.4%; activity at 10 µM (SW-620): -78.5%; activity at 10 µM (KM12): -96.9%

**Q.** Which results are given for `CCC12C=CCN3CCC4(c5cc(NC(=O)CN6CCN(Cc7ccc(C(F)(F)F)cc7)CC6)c(OC)cc5N(C)C4C(O)(C(=O)OC)C1OC(C)=O)C32` (stereo not shown) [Compound 18]?
**A.** activity at 10 µM (MOLT-4): 16.7%; activity at 10 µM (SF-295): 75.4%; activity at 10 µM (K-562): 43.8%; activity at 10 µM (MDA-MB-435): 63.9%; activity at 10 µM (MALME-3M): 73.3%; activity at 10 µM (786–0): 75.5%; activity at 10 µM (NCI-H322M): 64.6%; activity at 10 µM (RPMI-8226): 17.4%; activity at 10 µM (EKVX): 61.6%; activity at 10 µM (A498): 78.7%; activity at 10 µM (SNB-75): 20.3%; activity at 10 µM (OVCAR-3): 84.5%; activity at 10 µM (UACC-257): 80.6%; activity at 10 µM (OVCAR-4): 63.1%; activity at 10 µM (HCT-15): 49.7%; activity at 10 µM (HS 578T): 62.5%; activity at 10 µM (NCI-H23): 73.1%; activity at 10 µM (COLO 205): 56.5%; activity at 10 µM (MCF7): 32.6%; activity at 10 µM (CCRF-CEM): 39.4%; activity at 10 µM (SK-MEL-2): 72.9%; activity at 10 µM (SN12C): 59.3%; activity at 10 µM (HOP-62): 86.1%; activity at 10 µM (A549/ATCC): 54.1%; activity at 10 µM (U251): 74.8%; activity at 10 µM [1]: 60.6%; activity at 10 µM (LOX IMVI): 58.4%; activity at 10 µM (SF-539): 73.1%; activity at 10 µM (OVCAR-8): 72%; activity at 10 µM (IGROV1): 71.3%; activity at 10 µM (SF-268): 65.2%; activity at 10 µM (NCI-H522): 55.2%; activity at 10 µM (RXF 393): 41%; activity at 10 µM (SK-MEL-28): 90.8%; activity at 10 µM (HCT-116): 46.4%; activity at 10 µM (CAKI-1): 33%; activity at 10 µM (TK-10): 81.5%; activity at 10 µM (HL-60(TB)): 42.6%; activity at 10 µM (NCI-H460): 62.1%; activity at 10 µM (ACHN): 67.3%; activity at 10 µM (SW-620): 87%; activity at 10 µM (KM12): 83%
